The values below come from patent publication US9187472B2 (AbbVie Inc., priority 2012, dated 2015).

This assay has as its system PC3 cells. Description: NAMPT Cell Proliferation Assay. It is filed as cell-based. Particulars: Homo sapiens, PC-3, 120 h, 5 days incubation, cell viability by Cell Titer Glo. The essentials: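 Seed PC3 at 500 cells/well (RPMI, 10% HI-FBS), attach overnight; add compound, 10-fold series 10 μM → 1×10^−5 μM; incubate 5 d, 37° C/5% CO2; luminescent viability readout; fit % inhibition sigmoidally for IC50.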
On to `Cn1nc(C(=O)N2CCC(c3ccc(C(=O)NCc4ccn5ccnc5c4)cc3)CC2)c2c1CCCC2` [Example 994, N-(imidazo[1,2-a]pyridin-7-ylmethyl)-4-{1-[(1-methyl-4,5,6,7-tetrahydro-1H-indazol-3-yl)carbonyl]piperidin-4-yl}benzamide], for which the IC50 is 12.1 nM.

Compound `Cn1c(C(=O)N2CCC(c3ccc(C(=O)NCc4ccn5ccnc5c4)cc3)CC2)cc2occc21` [Example 995, N-(imidazo[1,2-a]pyridin-7-ylmethyl)-4-{1-[(4-methyl-4H-furo[3,2-b]pyrrol-5-yl)carbonyl]piperidin-4-yl}benzamide] came in with an IC50 of 10.8 nM.

`N#Cc1cc(F)cc(C(=O)N2CCC(c3ccc(C(=O)NCc4ccn5ccnc5c4)cc3)CC2)c1` [Example 996, 4-[1-(3-cyano-5-fluorobenzoyl)piperidin-4-yl]-N-(imidazo[1,2-a]pyridin-7-ylmethyl)benzamide] returned an IC50 of 62 nM. This IC50 is about 5.7-fold higher than that of the compound before.

`O=C(NCc1ccn2ccnc2c1)c1ccc(C2CCN(C(=O)c3cccc4ccncc34)CC2)cc1` [Example 997, N-(imidazo[1,2-a]pyridin-7-ylmethyl)-4-[1-(isoquinolin-8-ylcarbonyl)piperidin-4-yl]benzamide] showed a concentration for half-maximal inhibition (IC50) of 19.4 nM.

As to `N#Cc1ccc(CC(=O)N2CCC(c3ccc(C(=O)NCc4ccn5ccnc5c4)cc3)CC2)cc1` [Example 998, 4-{1-[(4-cyanophenyl)acetyl]piperidin-4-yl}-N-(imidazo[1,2-a]pyridin-7-ylmethyl)benzamide], it took 123 nM to reach half-maximal inhibition (IC50).

`N#Cc1cc(C(=O)N2CCC(c3ccc(C(=O)NCc4ccn5ccnc5c4)cc3)CC2)ccc1F` [Example 999, 4-[1-(3-cyano-4-fluorobenzoyl)piperidin-4-yl]-N-(imidazo[1,2-a]pyridin-7-ylmethyl)benzamide] displayed an IC50 of 684 nM.

Compound `O=C(NCc1ccn2ccnc2c1)c1ccc(C2CCN(C(=O)c3nc4c(s3)CCCC4)CC2)cc1` [Example 1000, N-(imidazo[1,2-a]pyridin-7-ylmethyl)-4-[1-(4,5,6,7-tetrahydro-1,3-benzothiazol-2-ylcarbonyl)piperidin-4-yl]benzamide] came in with an IC50 of 81.8 nM.

Consider `O=C(NCc1ccn2ccnc2c1)c1ccc(C2CCN(C(=O)c3nc4ccccc4s3)CC2)cc1` [Example 1001, 4-[1-(1,3-benzothiazol-2-ylcarbonyl)piperidin-4-yl]-N-(imidazo[1,2-a]pyridin-7-ylmethyl)benzamide], for which the IC50 is 95.3 nM.

For `CCc1cc(C(=O)N2CCC(c3ccc(C(=O)NCc4ccn5ccnc5c4)cc3)CC2)on1` [Example 1002, 4-{1-[(3-ethyl-1,2-oxazol-5-yl)carbonyl]piperidin-4-yl}-N-(imidazo[1,2-a]pyridin-7-ylmethyl)benzamide], half-maximal inhibition (IC50) required 154 nM. Against the preceding compound, the IC50 is about 1.6-fold higher.

`C=CCn1nc(C)cc1C(=O)N1CCC(c2ccc(C(=O)NCc3ccn4ccnc4c3)cc2)CC1` [Example 1003, N-(imidazo[1,2-a]pyridin-7-ylmethyl)-4-(1-{[3-methyl-1-(prop-2-en-1-yl)-1H-pyrazol-5-yl]carbonyl}piperidin-4-yl)benzamide] yielded an IC50 of 4.96 nM.

With `O=C(NCc1ccn2ccnc2c1)c1ccc(C2CCN(C(=O)c3ccc4snnc4c3)CC2)cc1` [Example 1004, 4-[1-(1,2,3-benzothiadiazol-5-ylcarbonyl)piperidin-4-yl]-N-(imidazo[1,2-a]pyridin-7-ylmethyl)benzamide], 56.7 nM corresponded to half-maximal inhibition (IC50).

As to `CCc1nc(C(=O)N2CCC(c3ccc(C(=O)NCc4ccn5ccnc5c4)cc3)CC2)cs1` [Example 1005, 4-{1-[(2-ethyl-1,3-thiazol-4-yl)carbonyl]piperidin-4-yl}-N-(imidazo[1,2-a]pyridin-7-ylmethyl)benzamide], the IC50 is 74.7 nM.

On to `CC(C)c1nccc(C(=O)N2CCC(c3ccc(C(=O)NCc4ccn5ccnc5c4)cc3)CC2)n1` [Example 1006, N-(imidazo[1,2-a]pyridin-7-ylmethyl)-4-(1-{[2-(propan-2-yl)pyrimidin-4-yl]carbonyl}piperidin-4-yl)benzamide], for which half-maximal inhibition (IC50) required 73.7 nM.

`Cc1cc(C(=O)N2CCC(c3ccc(C(=O)NCc4ccn5ccnc5c4)cc3)CC2)cnc1C` [Example 1007, 4-{1-[(5,6-dimethylpyridin-3-yl)carbonyl]piperidin-4-yl}-N-(imidazo[1,2-a]pyridin-7-ylmethyl)benzamide]: the IC50 came out at 37.3 nM.

Compound `CC(C)C1CC(C(=O)N2CCC(c3ccc(C(=O)NCc4ccn5ccnc5c4)cc3)CC2)CCO1` (centres unmarked) [Example 1008, N-(imidazo[1,2-a]pyridin-7-ylmethyl)-4-(1-{[2-(propan-2-yl)tetrahydro-2H-pyran-4-yl]carbonyl}piperidin-4-yl)benzamide] returned an IC50 of 2.94 nM. Compared with the last compound, the IC50 is about 13-fold lower.

Consider `COc1cccc(C)c1C(=O)N1CCC(c2ccc(C(=O)NCc3ccn4ccnc4c3)cc2)CC1` [Example 1009, N-(imidazo[1,2-a]pyridin-7-ylmethyl)-4-[1-(2-methoxy-6-methylbenzoyl)piperidin-4-yl]benzamide], for which the IC50 amounted to 1.2 nM.

On to `O=C(NCc1ccn2ccnc2c1)c1ccc(C2CCN(C(=O)c3cccc4ncsc34)CC2)cc1` [Example 1010, 4-[1-(1,3-benzothiazol-7-ylcarbonyl)piperidin-4-yl]-N-(imidazo[1,2-a]pyridin-7-ylmethyl)benzamide], for which half-maximal inhibition (IC50) required 5.8 nM.

`CC(C)n1ccc(C(=O)N2CCC(c3ccc(NC(=O)NCc4ccn5ccnc5c4)cc3)CC2)n1` [Example 1011, 1-(imidazo[1,2-a]pyridin-7-ylmethyl)-3-[4-(1-{[1-(propan-2-yl)-1H-pyrazol-3-yl]carbonyl}piperidin-4-yl)phenyl]urea]: the IC50 worked out at 1.97 nM. Compared with the last compound, the IC50 is about 2.9-fold lower.

Compound `O=C(NCc1ccn2ccnc2c1)Nc1ccc(C2CCN(C(=O)[C@@H]3COc4ccccc4O3)CC2)cc1` [Example 1012, 1-(4-{1-[(2S)-2,3-dihydro-1,4-benzodioxin-2-ylcarbonyl]piperidin-4-yl}phenyl)-3-(imidazo[1,2-a]pyridin-7-ylmethyl)urea] displayed an IC50 of 8.36 nM.

The compound `Cn1nc(C2CC2)cc1C(=O)N1CCC(c2ccc(NC(=O)NCc3ccn4ccnc4c3)cc2)CC1` [Example 1013, 1-(4-{1-[(3-cyclopropyl-1-methyl-1H-pyrazol-5-yl)carbonyl]piperidin-4-yl}phenyl)-3-(imidazo[1,2-a]pyridin-7-ylmethyl)urea] displayed an IC50 of 2.32 nM.

With `Cn1nc2c(c1C(=O)N1CCC(c3ccc(NC(=O)NCc4ccn5ccnc5c4)cc3)CC1)CCCC2` [Example 1014, 1-(imidazo[1,2-a]pyridin-7-ylmethyl)-3-(4-{1-[(2-methyl-4,5,6,7-tetrahydro-2H-indazol-3-yl)carbonyl]piperidin-4-yl}phenyl)urea], 2.07 nM corresponded to half-maximal inhibition (IC50).

Turning to `O=C(NCc1ccn2ccnc2c1)Nc1ccc(C2CCN(C(=O)c3onc4c3CCCC4)CC2)cc1` [Example 1015, 1-(imidazo[1,2-a]pyridin-7-ylmethyl)-3-{4-[1-(4,5,6,7-tetrahydro-2,1-benzoxazol-3-ylcarbonyl)piperidin-4-yl]phenyl}urea], the IC50 amounted to 1.68 nM. The IC50 values of the last two compounds are within 1.5-fold of each other.

In the case of `O=C(NCc1ccn2ccnc2c1)Nc1ccc(C2CCN(C(=O)c3cc(Cl)ncc3F)CC2)cc1` [Example 1016, 1-(4-{1-[(2-chloro-5-fluoropyridin-4-yl)carbonyl]piperidin-4-yl}phenyl)-3-(imidazo[1,2-a]pyridin-7-ylmethyl)urea], the IC50 worked out at 2.19 nM. The IC50 values of the last two compounds are within 1.5-fold of each other.

As to `Cc1ccc(F)c(C(=O)N2CCC(c3ccc(NC(=O)NCc4ccn5ccnc5c4)cc3)CC2)n1` [Example 1017, 1-(4-{1-[(3-fluoro-6-methylpyridin-2-yl)carbonyl]piperidin-4-yl}phenyl)-3-(imidazo[1,2-a]pyridin-7-ylmethyl)urea], the IC50 was found to be 2.29 nM. The IC50 values of the last two compounds are within 1.5-fold of each other.

With `O=C(NCc1ccn2ccnc2c1)Nc1ccc(C2CCN(C(=O)c3ccnc(Cl)c3F)CC2)cc1` [Example 1018, 1-(4-{1-[(2-chloro-3-fluoropyridin-4-yl)carbonyl]piperidin-4-yl}phenyl)-3-(imidazo[1,2-a]pyridin-7-ylmethyl)urea], the IC50 was 1.64 nM.

With `O=C(NCc1ccn2ccnc2c1)Nc1ccc(C2CCN(C(=O)c3ncccc3Cl)CC2)cc1` [Example 1019, 1-(4-{1-[(3-chloropyridin-2-yl)carbonyl]piperidin-4-yl}phenyl)-3-(imidazo[1,2-a]pyridin-7-ylmethyl)urea], half-maximal inhibition (IC50) required 1.98 nM. The IC50 values of the last two compounds are within 1.5-fold of each other.

The compound `O=C(NCc1ccn2ccnc2c1)Nc1ccc(C2CCN(C(=O)C3(c4ccccn4)CC3)CC2)cc1` [Example 1020, 1-(imidazo[1,2-a]pyridin-7-ylmethyl)-3-[4-(1-{[1-(pyridin-2-yl)cyclopropyl]carbonyl}piperidin-4-yl)phenyl]urea] gave an IC50 of 0.901 nM.

The compound `O=C(NCc1ccn2ccnc2c1)Nc1ccc(C2CCN(C(=O)c3ccn(C4CCCC4)n3)CC2)cc1` [Example 1021, 1-(4-{1-[(1-cyclopentyl-1H-pyrazol-3-yl)carbonyl]piperidin-4-yl}phenyl)-3-(imidazo[1,2-a]pyridin-7-ylmethyl)urea] registered a half-inhibitory concentration (IC50) of 1.11 nM.

`O=C(NCc1ccn2ccnc2c1)Nc1ccc(C2CCN(C(=O)c3ccnn3C(F)F)CC2)cc1` [Example 1022, 1-[4-(1-{[1-(difluoromethyl)-1H-pyrazol-5-yl]carbonyl}piperidin-4-yl)phenyl]-3-(imidazo[1,2-a]pyridin-7-ylmethyl)urea] registered an IC50 of 2.93 nM.

As to `O=C(NCc1ccn2ccnc2c1)Nc1ccc(C2CCN(C(=O)C3COc4ccccc4O3)CC2)cc1` (centres unmarked) [Example 1023, 1-{4-[1-(2,3-dihydro-1,4-benzodioxin-2-ylcarbonyl)piperidin-4-yl]phenyl}-3-(imidazo[1,2-a]pyridin-7-ylmethyl)urea], the IC50 came to 6.87 nM.

For `O=C(NCc1ccn2ccnc2c1)Nc1ccc(C2CCN(C(=O)C3Cc4ccccc4O3)CC2)cc1` (centres unmarked) [Example 1024, 1-{4-[1-(2,3-dihydro-1-benzofuran-2-ylcarbonyl)piperidin-4-yl]phenyl}-3-(imidazo[1,2-a]pyridin-7-ylmethyl)urea], the IC50 was found to be 3.52 nM. Against the preceding compound, the IC50 is about 2-fold lower.

Regarding `COC1CCC(C(=O)N2CCC(c3ccc(NC(=O)NCc4ccn5ccnc5c4)cc3)CC2)CC1` (centres unmarked) [Example 1025, 1-(imidazo[1,2-a]pyridin-7-ylmethyl)-3-(4-{1-[(4-methoxycyclohexyl)carbonyl]piperidin-4-yl}phenyl)urea], the IC50 came to 0.808 nM. Compared with the last compound, the IC50 is about 4.4-fold lower.
